These results are taken from US10265329B2, “Altering steroid metabolism for treatment of steroid-dependent disease” (THE CLEVELAND CLINIC FOUNDATION, priority 2015, dated 2019).

For assay [1], the system named is VCaP CRPC xenografts. Nature of the assay: VCaP CRPC xenograft growth under 5α-reduced Abi metabolites. The assay is classed as in vivo. The note with it: orchiectomized mice; i.p. daily up to 20 days; >30% growth. The method, then: Male NSG mice, 6 to 8 weeks of age were obtained from the Cleveland Clinic Biological Resources Unit facility. All mouse studies were conducted under a protocol approved by the Cleveland Clinic Institutional Animal Care and Use Committee. 10^7 VCaP cells were injected subcutaneously with matrigel. […] Control groups were administered 0.15 mL 5% benzyl alcohol and 95% safflower oil solution via intraperitoneal injection every day. Tumor volume was measured every other day, and time to increase in tumor volume by 30% was determined (2 sequential increases). Mice were sacrificed at treatment day 20. The significance of the difference between treatment groups was assessed by Kaplan-Meier survival analysis using a log-rank test in SigmaStat 3.5.

Assay [2] deals with T1, 3βHSD (Homo sapiens, UniProt P14060).
T1 construct: endogenous in cells; host or cells: LNCaP, VCaP
T1 sequence (P14060 2-373 limits assumed): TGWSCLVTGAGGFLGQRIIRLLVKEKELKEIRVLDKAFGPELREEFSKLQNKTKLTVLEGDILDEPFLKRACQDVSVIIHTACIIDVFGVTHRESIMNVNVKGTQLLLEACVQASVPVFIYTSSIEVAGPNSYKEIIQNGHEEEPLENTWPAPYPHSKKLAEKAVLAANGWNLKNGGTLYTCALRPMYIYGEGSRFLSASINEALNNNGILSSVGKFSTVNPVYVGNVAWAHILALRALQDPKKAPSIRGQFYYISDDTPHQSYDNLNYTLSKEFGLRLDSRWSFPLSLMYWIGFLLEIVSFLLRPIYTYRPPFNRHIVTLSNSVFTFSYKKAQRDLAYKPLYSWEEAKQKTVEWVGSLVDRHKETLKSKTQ
Nature of the assay: Conversion of [3H]-DHEA by 3βHSD to AD in prostate cancer cells (HPLC/TLC). It is filed as cell-based. Particulars: for 3βHSD inhibition activity relative to D4A: LNCaP, [3H]-DHEA to AD, 48 hours. The method, then: (§1) Cell Line Metabolism: Cells were seeded and incubated in 12-well plates with 0.2 million cells/well for ˜24 h and then incubated with a mixture of radioactive ([^3H]-labeled) and non-radioactive androgens (final concentration, 100 nM; ˜1,000,000 cpm/well; PerkinElmer, Waltham, Mass.) at 37° C. Aliquots of medium were collected at the indicated times. Collected medium was treated with 1,000 units of β-glucuronidase (Helix pomatia; Sigma-Aldrich) at 65° C. for 2 h, extracted with 860 μL ethyl acetate:isooctane (1:1), and concentrated under nitrogen gas. Xenograft Metabolism: 10^7 LNCaP or VCaP cells were injected subcutaneously with Matrigel into surgically orchiectomized NSG mice that were implanted with 5 mg 90-day sustained-release DHEA pellets (Innovative Research of American, Sarasota, Fla.). Xenografts were harvested when they reached 1000 mm^3, minced, and cultured in DMEM with 10% FBS at 37° C. with mixture of radioactive ([^3H]-labeled) and non-radioactive androgens, or Abi, when they reached 1000 mm^3. Each xenograft was analyzed in triplicate in at least three independent experiments. Aliquots of medium were collected at the indicated times. Collected medium was treated with 1,000 units of β-glucuronidase at 65° C. for 2 h, extracted with 860 μL ethyl acetate:isooctane (1:1), and concentrated under nitrogen gas.
Dried samples were reconstituted in 50% methanol and injected into the HPLC. Steroids and drug metabolites were separated on Kinetex 100×2.1 mm, 2.6 μm particle size C18 reverse-phase column (Phenomenex, Torrance, Calif.) using a methanol/water gradient at 30° C. […] Alternatively, dried samples were applied to plastic-backed silica gel plates and separated by thin-layer chromatography (TLC) using a mobile phase of 3:1 chloroform:ethyl acetate, followed by exposure of the plates to a phosphorimager screen and quantitated with a Storm model 860 phosphorimager (Applied Biosystems, Foster City, Calif.). […] Results are shown as mean±SD. […]

The target in assay [3] is T2, SRD5A (Homo sapiens, UniProt P18405).
T2 construct: endogenous in cells; host or cells: LAPC4
T2 sequence (P18405 1-259): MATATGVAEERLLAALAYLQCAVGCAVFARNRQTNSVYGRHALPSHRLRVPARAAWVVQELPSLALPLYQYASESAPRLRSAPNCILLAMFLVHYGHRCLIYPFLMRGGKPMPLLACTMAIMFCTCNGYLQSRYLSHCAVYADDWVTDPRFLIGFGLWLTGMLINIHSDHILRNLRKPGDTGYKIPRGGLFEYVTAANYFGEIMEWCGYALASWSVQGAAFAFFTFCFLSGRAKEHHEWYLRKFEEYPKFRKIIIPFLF
Nature of the assay: Conversion of [3H]-AD to 5α-reduced androgens in LAPC4 cells. The assay is classed as cell-based. The method, then: as §1
Dried samples were reconstituted in 50% methanol and injected into the HPLC. Steroids and drug metabolites were separated on Kinetex 100×2.1 mm, 2.6 μm particle size C18 reverse-phase column (Phenomenex, Torrance, Calif.) using a methanol/water gradient at 30° C. […] Alternatively, dried samples were applied to plastic-backed silica gel plates and separated by thin-layer chromatography (TLC) using a mobile phase of 3:1 chloroform:ethyl acetate, followed by exposure of the plates to a phosphorimager screen and quantitated with a Storm model 860 phosphorimager (Applied Biosystems, Foster City, Calif.). […] Results are shown as mean±SD.
Collected medium was treated with β-glucuronidase (Helix pomatia; Sigma-Aldrich), extracted with ethyl acetate:isooctane (1:1), and concentrated under nitrogen gas as described. Li et al., 523, 347-351 (2015).
Dried samples were reconstituted in 50% methanol and separated on Kinetex 100×2.1 mm, 2.6 μm particle size C18 reverse-phase column (Phenomenex, Torrance, Calif.) using a methanol/water gradient at 30° C. […] Results are shown as mean±SD.

For assay [4], the system named is androgen-responsive gene expression (PSA). Nature of the assay: Stimulation of androgen-responsive gene expression by Abi metabolites (qPCR). Particulars: LAPC4 and LNCaP. The assay is classed as cell-based, human. The method, then:
Cells were starved with phenol red-free and serum free-medium for at least 48 h before treatment with the indicated drugs and/or androgens. RNA extraction and cDNA synthesis were performed with the GenElute Mammalian Total RNA miniprep kit (Sigma-Aldrich) and iScript cDNA Synthesis Kit (Bio-Rad, Hercules, Calif.) respectively. Quantitative PCR (qPCR) analysis was conducted in triplicate in an ABI 7500 Real-Time PCR machine (Applied Biosystems) using iTaq Fast SYBR Green Supermix with ROX (Bio-Rad) and primers for TMPRSS2, PSA and RPLPO, as described. Chang et al., Cell 154, 1074-1084 (2013). Accurate quantitation of each mRNA was achieved by normalizing the sample values to RPLPO and to vehicle-treated cells. 50 μg cell lysate was used for immunoblot with rabbit anti-SRD5A1 (Abnova) and mouse anti-β-actin (Sigma-Aldrich) antibodies.

Read-outs that look alike come from different tables or passages of the source.

Turning to `C[C@]12CC[C@@H](O)C[C@@H]1CC[C@@H]1[C@@H]2CC[C@]2(C)C(c3cccnc3)=CC[C@@H]12` [Compound 3α-OH-5α-Abi, 17-(3-pyridyl)-5α-androsta-16-ene-3α-ol], the “progression-free survival compared to control xenografts” value in assay [1] is “no detectable effect”. In addition, the “3βHSD inhibition activity relative to D4A” value in assay [2] is reported as “attenuation or loss”. The “SRD5A inhibition activity relative to D4A” value in assay [3] (LAPC4, [3H]-AD to 5α-dione, 24 hours) was “lose SRD5A inhibition activity”. In addition, the “induction of androgen-responsive gene expression” value in assay [4] is “A lower level of induction”.
`C[C@]12CCC(=O)C[C@@H]1CC[C@@H]1[C@@H]2CC[C@]2(C)C(c3cccnc3)=CC[C@@H]12` [Compound 5α-Abi, 17-(3-pyridyl)-5α-androsta-16-ene-3-one]: in assay [1], the “progression-free survival compared to control xenografts” value is listed as “significantly shortened progression-free survival”. In addition, the “3βHSD inhibition activity relative to D4A” value in assay [2] is listed as “attenuation or loss”. The “SRD5A inhibition activity relative to D4A” value in assay [3] is reported as “lose SRD5A inhibition activity”. Also, the “induction of androgen-responsive gene expression” value in assay [4] is “results in expression of androgen-responsive genes”.
`C[C@]12CCC(=O)C=C1CC[C@@H]1[C@@H]2CC[C@]2(C)C(c3cccnc3)=CC[C@@H]12` [Compound D4A, 17-(3-Pyridyl)androsta-4,16-dien-3-one]: the “potency relative to Abi at blocking conversion of [3H]-DHEA by 3βHSD to AD” value in assay [2] (LNCaP and VCaP cells, TLC and HPLC) was “approximately 10 fold”. Moreover, the “block of conversion from AD to 5α-androstanedione and other 5α-reduced androgens” value in assay [3] (10 μM, LAPC4 cells) was “nearly completely blocks”.
